According to US6355799B1, “Substituted benzene compounds, process for their preparation, and herbicidal and defoliant compositions containing them” (ISK Americas Incorporated, priority 1997, dated 2002):

What was measured:
Type in all cases: in vivo
[1] = test system: redroot pigweed (Amaranthus retroflexus, AMARE); assay: Post-emerge test, greenhouse herbicide activity screening; settings: post-emerge, phytotoxicity rating 0-100 at 14 days after application
In short: (§1)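 Compounds in acetone were track-sprayed at 15–1000 g ai/ha: pre-emergence onto soil sown the previous day, then top-watered to incorporate and later bottom-watered; post-emergence onto 2–3 leaf plants with 0.25% v/v surfactant, bottom-watered only. Ratings on a 0–100 phytotoxicity scale were taken at day 14.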

[2] = test system: green foxtail (Setaria viridis, SETVI); assay: as above; settings: post-emerge, phytotoxicity rating 0-100 at 14 days after application
In short: as §1

[3] = test system: large crabgrass (Digitaria sanguinalis, DIGSA); assay: as above; settings: post-emerge, phytotoxicity rating 0-100 at 14 days after application
In short: as §1

[4] = test system: barnyardgrass (Echinochloa crus-galli, ECHCG); assay: as above; settings: post-emerge, phytotoxicity rating 0-100 at 14 days after application
In short: as §1

[5] = test system: common ragweed (Ambrosia artemisizfolia L., AMBEL); assay: as above; settings: post-emerge, phytotoxicity rating 0-100 at 14 days after application
In short: as §1

[6] = test system: ivyleaf morningglory (Ipomoea hederacea, IPOHE); assay: as above; settings: post-emerge, phytotoxicity rating 0-100 at 14 days after application
In short: as §1

[7] = test system: sicklepod (Cassia obtusifolia, CASOB); assay: as above; settings: post-emerge, phytotoxicity rating 0-100 at 14 days after application
In short: as §1

[8] = test system: velvetleaf (Abutilon theophrasti, ABUTH); assay: as above; settings: post-emerge, phytotoxicity rating 0-100 at 14 days after application
In short: as §1

[9] = test system: lambsquarters (Chenopodium album, CHEAL); assay: as above; settings: post-emerge, phytotoxicity rating 0-100 at 14 days after application
In short: as §1

[10] = test system: johnsongrass (Sorghum halepense, SORHA); assay: as above; settings: post-emerge, phytotoxicity rating 0-100 at 14 days after application
In short: as §1

[11] = test system: green foxtail (Setaria viridis, SETVI); assay: Pre-emerge test, greenhouse herbicide activity screening; settings: pre-emerge, phytotoxicity rating 0-100 at 14 days after application
In short: (§2)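 Plants grown in 10 cm pots of sandy loam mix received acetone-dissolved compounds through a moving flat-fan nozzle. Doses ranged from 15 to 1000 g ai/ha. Pre-emerge pots were seeded one day earlier, post-emerge pots 8–21 days earlier. Fourteen days on, each pot was graded 0–100 for damage.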

[12] = test system: large crabgrass (Digitaria sanguinalis, DIGSA); assay: as above; settings: pre-emerge, phytotoxicity rating 0-100 at 14 days after application
In short: as §2

[13] = test system: barnyardgrass (Echinochloa crus-galli, ECHCG); assay: as above; settings: pre-emerge, phytotoxicity rating 0-100 at 14 days after application
In short: as §2

[14] = test system: ivyleaf morningglory (Ipomoea hederacea, IPOHE); assay: as above; settings: pre-emerge, phytotoxicity rating 0-100 at 14 days after application
In short: as §2

[15] = test system: sicklepod (Cassia obtusifolia, CASOB); assay: as above; settings: pre-emerge, phytotoxicity rating 0-100 at 14 days after application
In short: as §2

[16] = test system: velvetleaf (Abutilon theophrasti, ABUTH); assay: as above; settings: pre-emerge, phytotoxicity rating 0-100 at 14 days after application
In short: as §2

[17] = test system: lambsquarters (Chenopodium album, CHEAL); assay: as above; settings: pre-emerge, phytotoxicity rating 0-100 at 14 days after application
In short: as §2

[18] = test system: johnsongrass (Sorghum halepense, SORHA); assay: as above; settings: pre-emerge, phytotoxicity rating 0-100 at 14 days after application
In short: as §2

[19] = test system: upland rice (Oryza sp., var. Tebonnet, RICE); assay: Post-emerge test, crop safety; settings: post-emerge, crop damage rating 0-100 at 14 days after application
In short: (§3)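 Each test used a mechanized track sprayer delivering 187 l/ha of acetone solution at 15–1000 g ai/ha. Post-emerge foliage at 2–3 leaves was treated with added 0.25% v/v non-ionic surfactant and bottom-watered only. Injury was assessed on day 14, where 100 means total kill.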

[20] = test system: field corn (Zea mays L., var. Dekalb 535, CORN); assay: Post-emerge test, crop safety; settings: post-emerge, crop damage rating 0-100 at 14 days after application
In short: as §3

[21] = test system: upland rice (Oryza sp., var. Tebonnet, RICE); assay: Pre-emerge test, crop safety; settings: crop damage, pre-emerge, phytotoxicity rating 0-100 at 14 days after application
In short: (§4)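 Fourteen days after spraying, crop and weed injury was graded visually from 0, no effect, to 100, every plant dead. Test substances were dissolved in acetone and applied at 15–1000 g ai/ha with a flat-fan nozzle. Application was either pre-emergence, one day after sowing, or post-emergence at the 2–3 leaf stage.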

[22] = test system: field corn (Zea mays L., var. Dekalb 535, CORN); assay: Pre-emerge test, crop safety; settings: crop damage, pre-emerge, phytotoxicity rating 0-100 at 14 days after application
In short: as §4

[23] = test system: redroot pigweed (Amaranthus retroflexus, AMARE); assay: Pre-emerge test, greenhouse herbicide activity screening; settings: pre-emerge, phytotoxicity rating 0-100 at 14 days after application
In short: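 Compounds in acetone were track-sprayed at 15-1000 g ai/ha (187 l/ha) on sandy loam pots: pre-emerge one day after seeding, post-emerge at 2-3 leaf stage with 0.25% v/v non-ionic surfactant. Phytotoxicity was rated 14 days later on a 0 (no damage) to 100 (complete death) scale.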

With `COc1c(Cl)cc(F)c(-n2ncc(C(F)(F)F)cc2=O)c1NC(=O)c1ccc2ccccc2c1` [Compound 11-6, 2-(4-chloro-6-fluoro-3-methoxy-2-naphthoylamidophenyl)-5-trifluoromethylpyridazin-3-one] the “Post-emerge Herbicidal Activity AMARE” value ([1]; 63 g ai/ha) was 100, the “Post-emerge Herbicidal Activity AMARE” value ([1]; 250 g ai/ha) was 100 and the “Post-emerge Herbicidal Activity SETVI” value ([2]; 63 g ai/ha) was 10. The “Post-emerge Herbicidal Activity SETVI” value ([2]; 250 g ai/ha) was 50, the “Post-emerge Herbicidal Activity DIGSA” value ([3]; 63 g ai/ha) was 0 and the “Post-emerge Herbicidal Activity DIGSA” value ([3]; 250 g ai/ha) was 0. For the same compound, the “Post-emerge Herbicidal Activity ECHCG” value ([4]; 63 g ai/ha) was 50, the “Post-emerge Herbicidal Activity ECHCG” value ([4]; 250 g ai/ha) was 80 and the “Post-emerge Herbicidal Activity AMBEL” value ([5]; 63 g ai/ha) was 100. For the same compound, the “Post-emerge Herbicidal Activity AMBEL” value ([5]; 250 g ai/ha) was 100, the “Post-emerge Herbicidal Activity IPOHE” value ([6]; 63 g ai/ha) was 70 and the “Post-emerge Herbicidal Activity IPOHE” value ([6]; 250 g ai/ha) was 100. For the same compound, the “Post-emerge Herbicidal Activity CASOB” value ([7]; 63 g ai/ha) was 100, the “Post-emerge Herbicidal Activity CASOB” value ([7]; 250 g ai/ha) was 100 and the “Post-emerge Herbicidal Activity ABUTH” value ([8]; 63 g ai/ha) was 100. The “Post-emerge Herbicidal Activity ABUTH” value ([8]; 250 g ai/ha) was 100, the “Post-emerge Herbicidal Activity CHEAL” value ([9]; 63 g ai/ha) was 80 and the “Post-emerge Herbicidal Activity CHEAL” value ([9]; 250 g ai/ha) was 100. For the same compound, the “Post-emerge Herbicidal Activity SORHA” value ([10]; 63 g ai/ha) was 0, the “Post-emerge Herbicidal Activity SORHA” value ([10]; 250 g ai/ha) was 0 and the “Pre-emerge Herbicidal Activity SETVI” value ([11]; rate 63 g ai/ha) was 100. The “Pre-emerge Herbicidal Activity SETVI” value ([11]; rate 250 g ai/ha) was 100, the “Pre-emerge Herbicidal Activity DIGSA” value ([12]; rate 63 g ai/ha) was 100 and the “Pre-emerge Herbicidal Activity DIGSA” value ([12]; rate 250 g ai/ha) was 100. For the same compound, the “Pre-emerge Herbicidal Activity ECHCG” value ([13]; rate 63 g ai/ha) was 90, the “Pre-emerge Herbicidal Activity ECHCG” value ([13]; rate 250 g ai/ha) was 100 and the “Pre-emerge Herbicidal Activity IPOHE” value ([14]; rate 63 g ai/ha) was 0. For the same compound, the “Pre-emerge Herbicidal Activity IPOHE” value ([14]; rate 250 g ai/ha) was 80, the “Pre-emerge Herbicidal Activity CASOB” value ([15]; rate 63 g ai/ha) was 20 and the “Pre-emerge Herbicidal Activity CASOB” value ([15]; rate 250 g ai/ha) was 99. For the same compound, the “Pre-emerge Herbicidal Activity ABUTH” value ([16]; rate 63 g ai/ha) was 95, the “Pre-emerge Herbicidal Activity ABUTH” value ([16]; rate 250 g ai/ha) was 100 and the “Pre-emerge Herbicidal Activity CHEAL” value ([17]; rate 63 g ai/ha) was 100. The “Pre-emerge Herbicidal Activity CHEAL” value ([17]; rate 250 g ai/ha) was 100, the “Pre-emerge Herbicidal Activity SORHA” value ([18]; rate 63 g ai/ha) was 0 and the “Pre-emerge Herbicidal Activity SORHA” value ([18]; rate 250 g ai/ha) was 40. The “Post-emerge Herbicidal Activity RICE” value ([19]; 63 g ai/ha) was 20, the “Post-emerge Herbicidal Activity RICE” value ([19]; 250 g ai/ha) was 60 and the “Post-emerge Herbicidal Activity CORN” value ([20]; 63 g ai/ha) was 0. The “Post-emerge Herbicidal Activity CORN” value ([20]; 250 g ai/ha) was 20, the “Pre-emerge Herbicidal Activity RICE” value ([21]; rate 63 g ai/ha) was 0 and the “Pre-emerge Herbicidal Activity RICE” value ([21]; rate 250 g ai/ha) was 50. For the same compound, the “Pre-emerge Herbicidal Activity CORN” value ([22]; rate 63 g ai/ha) was 0, the “Pre-emerge Herbicidal Activity CORN” value ([22]; rate 250 g ai/ha) was 20 and the “Pre-emerge Herbicidal Activity AMARE” value ([23]; rate 63 g ai/ha) was 100. For the same compound, the “Pre-emerge Herbicidal Activity AMARE” value ([23]; rate 250 g ai/ha) was 100.
